# Assay results published in patent US20230118642A1, “METHOD FOR TREATING THERAPY-RESISTANT MUC4+ CANCER” (CONSEJO NACIONAL DE INVESTIGACIONES CIENTÍFICAS Y TÉCNICAS, priority 2020, published 2023).
# Columns and labels:
# JIMT-1-shMUC4 cells [1] = test: JIMT-1-shMUC4 migration with lapatinib and TNF-blocking agents; format: cell-based
# Method: (§1) Again, lapatinib is used in the metastatic setting (infra). The metastatic cascade is a multistep process that involves migration and invasion of tumor cells that pass through the basement membrane and extracellular matrix, the intravasation to the lymphatic or vascular circulation, the extravasation and the attachment of a new location to generate a secondary tumor. The migration ability of JIMT-1 treated with lapatinib and TNF-blocking agents was evaluated. […] To study MUC4 contribution on the inhibition of migration observed by simultaneous treatment of TNF-blocking drugs and lapatinib, the JIMT-1 cell line was transduced with a plasmid encoding a doxycycline-inducible shRNA targeting MUC4, and JIMT-1-shMUC4 cells were obtained (FIGS. 16 B and C).
# JIMT-1-shMUC4 cells [2] = test: JIMT-1-shMUC4 cell proliferation with lapatinib and TNFα blockade, cell count at 72 h; format: cell-based
# Method: (§2) Then, to study the participation of MUC4 in lapatinib resistance, we transduced the trastuzumab-resistant JIMT-1 cell line with a plasmid encoding a doxycycline (Dox)-inducible shRNA targeting MUC4, and obtained JIMT-1-shMUC4 cells.
# (§3) FIG. 18 TNFα blockade sensitizes lapatinib-resistant cells in vitro. Cell proliferation was evaluated in JIMT-1 and JIMT-1-shMUC4 cell lines by cell count at 72 h of treatment. Cells were treated with immunoglobulin G (IgG 5 μg/ml), lapatinib (Lap 1 μM), etanercept (E 5 μg/ml), or INB03 (DN; 10 μg/ml), alone or in different combinations. FIG. 18A. JIMT-1 wild type. FIGS. 18B and 18C JIMT-1-shMUC4 and in C cells were treated with Dox 10 μg/ml for 10 days before and during the experiment to assure MUC4 downregulation.
# HER2+ breast cancer = details: patients with trastuzumab-resistant disease; cited from earlier work
# [3] = system: SNU-1 gastric cancer cell line; test: SNU-1 cell proliferation, Countess automatic cell count; format: cell-based; details: 72 h
# Method: In order to extend our findings of the role of INB03 in increasing lapatinib inhibitory effect on HER2+ breast cancer cell proliferation to other tumor types, we used both drugs in the ovarian cancer SK-OV-3 cells and in the gastric SNU-1 cells. Both cell lines express HER2 and MUC4.
# FIG. 22(A-B) INB03 enhances lapatinib inhibition in cell proliferation of ovarian and gastric cancer cell. Cell proliferation was evaluated in the SK-OV-3 ovarian cancer cell line (FIG. 22A) and in the SNU-1 gastric cancer cell line. Cells were treated with vehicle (DMSO 0.1%), lapatinib (Lap), or NB03 (10 μg/ml), alone or in different combinations for 72 h. (FIG. 22A) SK-OV-3 cells viability was analyzed by CellTiter Glo 2.0 assay. (FIG. 22B) SNU-1 cell proliferation was evaluated by cell count Countess automatic cell count.
# (§4) FIG. 25(A-C) INB03 enhances sorafenib inhibition in cell proliferation of colon, gastric and triple-negative breast cancer cells. Cell proliferation was evaluated in the HT-29 colon cancer (FIG. 25A), SNU-1 gastric cancer (FIG. 25B) and in the in the HCC-70 triple-negative breast cancer cell lines (FIG. 25C). Cells were treated with vehicle (DMSO 0.1%), sorafenib (Soraf), or INB03 (10 μg/ml), alone or in different combinations for 72 h. (FIGS. 25A and B) HT-29 and SNU-1 cell proliferation was evaluated by cell count Countess automatic cell count. (FIG. 25C) HCC70 cell viability was analyzed by CellTiter Glo 2.0 assay.
# JIMT-1 = JIMT-1 migration with lapatinib and TNF-blocking agents; format: cell-based
# Method: as §1
# [4] = system: SK-OV-3 ovarian cancer cell line; test: SK-OV-3 cell viability, CellTiter Glo 2.0; format: cell-based; details: lapatinib 2.5 μM alone, 72 h
# Method: Cells were treated with vehicle (DMSO 0.1%), lapatinib (Lap), or NB03 (10 μg/ml), alone or in different combinations for 72 h. (FIG. 22A) SK-OV-3 cells viability was analyzed by CellTiter Glo 2.0 assay. […] Data was analyzed by one-way ANOVA coupled with a Tukey's post hoc test. The data as shown represents mean SEM. *p<0.05, **p<0.01.
# [5] = stated without test; cited from earlier work
# JIMT-1 cell line [6] = test: JIMT-1 cell proliferation, [3H]-thymidine incorporation; format: cell-based; details: 48 h treatment, 18 h pulse; T 10 μg/ml, P 10 μg/ml, E 5 μg/ml, DN 2 μg/ml; vs IgG
# Method: A strategy of implementing a TNFα blockade was employed, either with Etanercept (E) or the dominant negative protein XPRO1595 (DN) in JIMT-1, de novo T and T+P resistant cell line which produces TNFα. JIMT-1 tumors were established in female nude mice to explore whether TNFα blockade overcomes T+P resistance. Animals were treated with 5 mg/kg of IgG, P, T+P, 10 mg/kg of DN or P+T+DN i.p. twice a week. […] Proliferation of cells treated with IgG, T, P, DN, E (10 μg/ml, 10 μg/ml, 10 μg/ml, 2 μg/ml and 5 μg/ml respectively) as monotherapy and in different combinations was evaluated by cell count or [3H]-thymidine incorporation. The combination of TNFα blockade with T+P inhibited cell proliferation vs. IgG, P+T, P+E, P+DN (p<0.0001).
# Cell proliferation in JIMT-1 cell line was evaluated by ^3[H]-thymidine incorporation assay at 48 h of treatment with 18 h pulse (See Rivas M A, et al., Exp Cell Res 2008; 314:509-29, the contents of which are hereby incorporated by reference). […] The data as shown in FIG. 3 represents mean±standard deviation *p<0.05, **p<0.01, ***p<0.001 vs. IgG.
# [7] = system: HCC70 triple-negative breast cancer cell line; test: HCC70 cell viability, CellTiter Glo 2.0; format: cell-based; details: 72 h
# Method: as §4
# FIG. 26 INB03 enhances cediranib inhibition in cell viability of HCC70 triple-negative breast cancer cells. Cell viability was evaluated in the HCC70 cell line. Cells were treated with vehicle (DMSO 0.1%), cediranib (cedir), or INB03 (10 μg/ml), alone or in different combinations for 72 h. Cell viability was analyzed by CellTiter Glo 2.0 assay.
# MDA-MB-468 cell line = test: MDA-MB-468 cell viability, CellTiter Glo 2.0; format: cell-based; details: Homo sapiens, 72 h, read-out: decrease of MDA-MB-468 cell viability
# Method: FIG. 24 INB03 enhances erlotinib inhibition in cell viability of MDA-MB 468 triple-negative breast cancer cells. Cell viability was evaluated in the MDA-MB-468 cell line. Cells were treated with vehicle (DMSO 0.1%), erlotinib (erlot), or INB03 (10 μg/ml), alone or in different combinations for 72 h.
# JIMT-1 cell line [8] = test: JIMT-1 cell proliferation with lapatinib and TNFα blockade, cell count at 72 h; format: cell-based; details: TNFα blocker simultaneously with lapatinib 1 μM, E 5 μg/ml, INB03 10 μg/ml
# Method: as §2, §3
# HT-29 colon cancer cells = test: HT-29 cell proliferation, Countess automatic cell count; format: cell-based; details: 72 h
# Method: as §4
compound,measurement,setting,value
CS(=O)(=O)CCNCc1ccc(-c2ccc3ncnc(Nc4ccc(OCc5cccc(F)c5)c(Cl)c4)c3c2)o1 [lapatinib],cell migration,"JIMT-1-shMUC4 cells [1]; JIMT-1-shMUC4 with doxycycline (MUC4 silenced), lapatinib",decrease in JIMT-1 cells migration
same,cell proliferation,"JIMT-1-shMUC4 cells [2]; JIMT-1-shMUC4 with Dox 10 μg/ml (MUC4 silenced), lapatinib",decrease in JIMT-1 cells proliferation
same,patients with clinical benefit,HER2+ breast cancer,< 30%
same,effect on proliferation of SNU-1 cells,[3]; lapatinib 1 μM alone,no effect
same,JIMT-1 migration,JIMT-1; each drug alone,no effect
same,effect on viability of SK-OV-3 cells,[4],no effect
same,crossing of the blood-brain-barrier,[5],cross the blood-brain-barrier
pertuzumab: monoclonal antibody that disrupts HER2/HER3 dimerization,cell proliferation in JIMT-1 cell line,JIMT-1 cell line [6],"negligible, if any, impact"
COc1cc2c(Oc3ccc4[nH]c(C)cc4c3F)ncnc2cc1OCCCN1CCCC1 [cediranib],cytotoxicity at 2.5 µM,"[7]; Homo sapiens, HCC70, cediranib 2.5 μM alone, read-out: effect on HCC70 cell viability",20%
same,cytotoxicity at 5 µM,"[7]; Homo sapiens, HCC70, cediranib 5 μM alone, read-out: effect on HCC70 cell viability",46%
C#Cc1cccc(Nc2ncnc3cc(OCCOC)c(OCCOC)cc23)c1 [erlotinib],cytotoxicity at 1.25 µM,MDA-MB-468 cell line; erlotinib 1.25 μM alone,27%
same,cytotoxicity at 2.5 µM,MDA-MB-468 cell line; erlotinib 2.5 μM alone,38%
same,cytotoxicity at 5 µM,MDA-MB-468 cell line; erlotinib 5 μM alone,48%
etanercept,cell migration,"JIMT-1-shMUC4 cells [1]; JIMT-1-shMUC4 with doxycycline, TNF blocker added to lapatinib",did not further induce a decrease in cell migration
same,cell migration,"JIMT-1-shMUC4 cells [1]; JIMT-1shMUC4 without doxycycline, TNF blocker with lapatinib",decreased their migration
same,cell proliferation,"JIMT-1-shMUC4 cells [2]; JIMT-1-shMUC4 with Dox, TNFα blocker added to lapatinib",did not further induce a decrease in cell proliferation
same,JIMT-1 cell proliferation,JIMT-1 cell line [8],reduces JIMT-1 cell proliferation
same,JIMT-1 migration,JIMT-1; TNF blocker together with lapatinib,impairs JIMT-1 migration
same,JIMT-1 migration,JIMT-1; each drug alone,no effect
CNC(=O)c1cc(Oc2ccc(NC(=O)Nc3ccc(Cl)c(C(F)(F)F)c3)cc2)ccn1 [sorafenib],cytotoxicity at 1.5 µM,"[7]; Homo sapiens, HCC70, sorafenib 1.5 μM alone, read-out: HCC70 viability reduction",44%
same,effect on HCC70 viability,[7]; sorafenib 1 μM alone,no effect
same,effect on SNU-1 proliferation,[3]; sorafenib 1.5 μM alone,did not affect its proliferation
same,decrease of SNU-1 cell proliferation,[3]; sorafenib 3 μM alone,38%
same,effect on HT-29 cell proliferation,HT-29 colon cancer cells; sorafenib 2.5 μM alone,no inhibitory effect
same,reduction of HT-29 proliferation,HT-29 colon cancer cells; sorafenib 10 μM alone,62%
